What follows are compounds tested against human TYK2 (JH2domain-pseudokinase) (Homo sapiens (Human), UniProt P29597) (assay: TYK2 JH2 Domain Binding Assay (KINOMEscan, DiscoveRx)). Settings: 11-point dilution, duplicate.
Method in brief: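 TYK2 JH2 (G556–D888)–NFkB DBD fusion, DNA-tagged, from HEK293 extracts (<0.1 nM) competed against immobilised biotinylated ligand for 1 h at room temperature, 0.9% DMSO. Bead-retained kinase quantified by qPCR; Kd from 11-point 3-fold series (top 30,000 nM, duplicate), Hill fit with slope −1.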

human TYK2 (JH2domain-pseudokinase), sequence (P29597 556-888): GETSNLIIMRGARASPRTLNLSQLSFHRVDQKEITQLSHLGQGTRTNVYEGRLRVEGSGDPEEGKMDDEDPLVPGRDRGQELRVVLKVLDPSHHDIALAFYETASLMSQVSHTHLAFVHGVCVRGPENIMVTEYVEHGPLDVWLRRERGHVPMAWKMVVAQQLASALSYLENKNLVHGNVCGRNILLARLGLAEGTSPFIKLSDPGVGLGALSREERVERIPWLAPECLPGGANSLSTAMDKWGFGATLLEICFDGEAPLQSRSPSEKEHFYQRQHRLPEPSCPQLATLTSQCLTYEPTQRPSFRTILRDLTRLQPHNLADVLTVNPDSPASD

Row | SMILES | Kd [nM]
1 | CS(=O)(=O)c1cc(C2CCCCO2)ccc1Nc1cc(NC(=O)C2CC2)nc2[nH]c(C(F)F)nc12 (stereo not shown) [I-401, N-(2-(difluoromethyl)-7-((2-(methylsulfonyl)-4-(tetrahydro-2H-pyran-2-yl)phenyl)amino)-3H-imidazo[4,5-b]pyridin-5-yl)cyclopropanecarboxamide] | < 0.1
2 | COc1cc(-c2nc(C)c(C)s2)ccc1Nc1cc(NC(=O)C2CC2)nc2[nH]c(C)nc12 [I-559, N-(7-((4-(4,5-dimethylthiazol-2-yl)-2-methoxyphenyl)amino)-2-methyl-3H-imidazo[4,5-b]pyridin-5-yl)cyclopropanecarboxamide] | 1 to 10
3 | Cc1nc2c(Nc3ccc([C@H]4CCCO4)cc3S(C)(=O)=O)cc(Nc3cccc(C#N)n3)nc2[nH]1 [I-569, (R)-6-((2-methyl-7-((2-(methylsulfonyl)-4-(tetrahydrofuran-2-yl)phenyl)amino)-3H-imidazo[4,5-b]pyridin-5-yl)amino)picolinonitrile] | < 0.1
4 | Cc1cc(-c2ccc(Nc3cc(NC(=O)[C@@H]4CC4(F)F)nc4[nH]c(C(F)F)nc34)c(S(C)(=O)=O)c2)nn1C [I-313, (S)—N-(2-(difluoromethyl)-7-((4-(1,5-dimethyl-1H-pyrazol-3-yl)-2-(methylsulfonyl)phenyl)amino)-3H-imidazo[4,5-b]pyridin-5-yl)-2,2-difluorocyclopropane-1-carboxamide] | 0.5 to 1
5 | Cc1nc2c(Nc3ccc(-c4nc(C)c(C)s4)cc3S(C)(=O)=O)cc(NC(=O)C3CC3)nc2[nH]1 [I-312, N-(7-((4-(4,5-dimethylthiazol-2-yl)-2-(methylsulfonyl)phenyl)amino)-2-methyl-3H-imidazo[4,5-b]pyridin-5-yl)cyclopropanecarboxamide] | 0.1 to 0.5
6 | Cc1nc2c(Nc3ccc(-c4cnn(C)c4C)cc3S(C)(=O)=O)cc(Nc3ccc(C(C)C)c(C#N)n3)nc2[nH]1 [I-394] | 0.1 to 0.5
7 | Cc1nc2c(Nc3ccc(C4=NC(C)(C)CO4)cc3S(C)(=O)=O)cc(NC(=O)[C@@H]3C[C@@H]3F)nc2[nH]1 [I-282, (1S,2S)—N-(7-((4-(4,4-dimethyl-4,5-dihydrooxazol-2-yl)-2-(methylsulfonyl)phenyl)amino)-2-methyl-3H-imidazo[4,5-b]pyridin-5-yl)-2-fluorocyclopropane-1-carboxamide] | 1 to 10
8 | CS(=O)(=O)c1cc(Cl)ccc1Nc1cc(NC(=O)[C@H]2C[C@H]2F)nc2[nH]c(C(F)F)nc12 [I-205] | 0.5 to 1
9 | Cc1nc2c(Nc3ccc(C4=NC(C)(C)CS4)cc3S(C)(=O)=O)cc(Nc3cnc(C)c(C)n3)nc2[nH]1 [I-566, N7-(4-(4,4-dimethyl-4,5-dihydrothiazol-2-yl)-2-(methylsulfonyl)phenyl)-N5-(5,6-dimethylpyrazin-2-yl)-2-methyl-3H-imidazo[4,5-b]pyridine-5,7-diamine] | 1 to 10
10 | Cc1cn(C)c(-c2ccc(Nc3cc(NC(=O)C4CC4)nc4[nH]c(C(F)F)nc34)c(S(C)(=O)=O)c2)n1 [I-450, N-(2-(difluoromethyl)-7-((4-(1,4-dimethyl-1H-imidazol-2-yl)-2-(methylsulfonyl)phenyl)amino)-3H-imidazo[4,5-b]pyridin-5-yl)cyclopropanecarboxamide] | 0.1 to 0.5
11 | COc1c(Nc2cc(NC(=O)C3CC3)nc3[nH]c(C)nc23)cccc1-c1nnn(C)c1C [I-158, N-(7-((3-(1,5-dimethyl-1H-1,2,3-triazol-4-yl)-2-methoxyphenyl)amino)-2-methyl-3H-imidazo[4,5-b]pyridin-5-yl)cyclopropanecarboxamide] | > 10
12 | Cc1nc(-c2ccc(Nc3cc(NC(=O)C4CC4)nc4[nH]c(C)nc34)c(N(C)S(C)(=O)=O)c2)n(C)n1 [I-165, N-(7-((4-(1,3-dimethyl-1H-1,2,4-triazol-5-yl)-2-(N-methylmethylsulfonamido)phenyl)amino)-2-methyl-3H-imidazo[4,5-b]pyridin-5-yl)cyclopropanecarboxamide] | > 10
13 | Cc1ccc(Nc2cc(Nc3ccccc3N(C)S(C)(=O)=O)c3nc(C)[nH]c3n2)nn1 [I-118, N-methyl-N-(2-((2-methyl-5-((6-methylpyridazin-3-yl)amino)-3H-imidazo[4,5-b]pyridin-7-yl)amino)phenyl)methanesulfonamide] | 0.1 to 0.5
14 | CC1(C)CC(c2ccc(Nc3cc(NC(=O)C4CC4)nc4[nH]c(C(F)F)nc34)c(S(C)(=O)=O)c2)CC(C)(C)O1 [I-399] | > 10

Now from value to compound:

Row | Kd [nM] | SMILES
15 | 1 to 10 | COc1cc(-c2nn(C)cc2C)ccc1Nc1cc(NC(=O)C2CC2)nc2[nH]c(C(F)F)nc12 [I-554, N-(2-(difluoromethyl)-7-((4-(1,4-dimethyl-1H-pyrazol-3-yl)-2-methoxyphenyl)amino)-3H-imidazo[4,5-b]pyridin-5-yl)cyclopropanecarboxamide]
16 | 0.1 to 0.5 | CS(=O)(=O)c1cc(C2CCC2)ccc1Nc1cc(NC(=O)[C@@H]2C[C@@H]2F)nc2[nH]c(C(F)F)nc12 [I-433, (1S, 2S)—N-(7-((4-cyclobutyl-2-(methylsulfonyl)phenyl)amino)-2-(difluoromethyl)-3H-imidazo[4,5-b]pyridin-5-yl)-2-fluorocyclopropane-1-carboxamide]
17 | 0.1 to 0.5 | CN=[S@](C)(=O)c1cc(-c2nc(COC)c(C)s2)ccc1Nc1cc(NC(=O)C2CC2)nc2[nH]c(C(F)F)nc12 [I-650]
18 | > 10 | CC1(C)CSC(c2ccc(Nc3cc(NC(=O)[C@@H]4CC4(F)F)nc4[nH]c(C(F)F)nc34)c(S(C)(=O)=O)c2)=N1 [I-483, (S)—N-(2-(difluoromethyl)-7-((4-(4,4-dimethyl-4,5-dihydrothiazol-2-yl)-2-(methylsulfonyl)phenyl)amino)-3H-imidazo[4,5-b]pyridin-5-yl)-2,2-difluorocyclopropane-1-carboxamide]
19 | 1 to 10 | COc1c(Nc2cc(Nc3cnc(N4CCOCC4)c(C#N)n3)nc3[nH]c(C)nc23)cccc1-c1nnn(C)n1 [I-116, 6-((7-((2-methoxy-3-(2-methyl-2H-tetrazol-5-yl)phenyl)amino)-2-methyl-3H-imidazo[4,5-b]pyridin-5-yl)amino)-3-morpholinopyrazine-2-carbonitrile]
20 | < 0.1 | Cc1nc2c(Nc3ccc(-c4cc(C)n(C)n4)cc3S(C)(=O)=O)cc(Nc3cnc(C)c(C)n3)nc2[nH]1 [I-508, N7-(4-(1,5-dimethyl-1H-pyrazol-3-yl)-2-(methylsulfonyl)phenyl)-N5-(5,6-dimethylpyrazin-2-yl)-2-methyl-3H-imidazo[4,5-b]pyridine-5,7-diamine]
21 | 0.5 to 1 | Cc1ccc(Nc2cc(Nc3ccc(-c4cc(C)n(C)n4)cc3S(C)(=O)=O)c3nc(C(F)F)[nH]c3n2)nc1C#N [I-303, 6-((2-(difluoromethyl)-7-((4-(1,5-dimethyl-1H-pyrazol-3-yl)-2-(methylsulfonyl)phenyl)amino)-3H-imidazo[4,5-b]pyridin-5-yl)amino)-3-methylpicolinonitrile]
22 | 0.1 to 0.5 | CC1(C)CCC(c2ccc(Nc3cc(NC(=O)C4CC4)nc4[nH]c(C(F)F)nc34)c(S(C)(=O)=O)c2)OC1 (stereo not shown) [I-356]
23 | > 10 | CC1(C)CSC(c2ccc(Nc3cc(NC(=O)C4CC4(F)F)nc4[nH]c(C(F)F)nc34)c(S(C)(=O)=O)c2)=N1 (stereo not shown) [I-351, N-(2-(difluoromethyl)-7-((4-(4,4-dimethyl-4,5-dihydrothiazol-2-yl)-2-(methylsulfonyl)phenyl)amino)-3H-imidazo[4,5-b]pyridin-5-yl)-2,2-difluorocyclopropane-1-carboxamide]
24 | 0.5 to 1 | Cc1cn(C)c(-c2ccc(Nc3cc(NC(=O)C4CC4)nc4[nH]c(C)nc34)c(N(C)S(C)(=O)=O)c2)n1 [I-176, N-(7-((4-(1,4-dimethyl-1H-imidazol-2-yl)-2-(N-methylmethyl-sulfonamido)phenyl)amino)-2-methyl-3H-imidazo[4,5-b]pyridin-5-yl)cyclopropane-carboxamide]
25 | 0.5 to 1 | COc1c(Nc2cc(Nc3cc(CO)ccn3)nc3[nH]cnc23)cccc1-c1ncn(C)n1 [I-5, (2-((7-((2-methoxy-3-(1-methyl-1H-1,2,4-triazol-3-yl)phenyl)amino)-3H-imidazo[4,5-b]pyridin-5-yl)amino)pyridin-4-yl)MeOH]
26 | 0.5 to 1 | CO[C@H](C)c1ccc(Nc2cc(NC(=O)C3CC3)nc3[nH]c(C(F)F)nc23)c(S(C)(=O)=O)c1 [I-454, (R)—N-(2-(difluoromethyl)-7-((4-(1-methoxyethyl)-2-(methylsulfonyl)phenyl)amino)-3H-imidazo[4,5-b]pyridin-5-yl)cyclopropanecarboxamide]
27 | < 0.1 | COCCOc1ccc(Nc2cc(Nc3ccccc3S(C)(=O)=O)c3nc(C)[nH]c3n2)nc1C#N [I-620, 3-(2-methoxyethoxy)-6-((2-methyl-7-((2-(methylsulfonyl)phenyl)amino)-3H-imidazo[4,5-b]pyridin-5-yl)amino)picolinonitrile]
28 | 0.1 to 0.5 | [2H]C([2H])([2H])N(c1ccccc1Nc1cc(Nc2cc(C)nc(C)n2)nc2[nH]c(C(F)F)nc12)S(=O)(=O)C([2H])([2H])[2H] [I-457, N-(2-((2-(difluoromethyl)-5-((2,6-dimethylpyrimidin-4-yl)amino)-3H-imidazo[4,5-b]pyridin-7-yl)amino)phenyl)-N-(methyl-d3)methanesulfonamide-d3]
29 | 0.5 to 1 | Cc1nc2c(Nc3ccc([C@@H]4CCCO4)cc3S(C)(=O)=O)cc(Nc3ccc(C(C)C)c(C#N)n3)nc2[nH]1 [I-596, (S)-3-isopropyl-6-((2-methyl-7-((2-(methylsulfonyl)-4-(tetrahydrofuran-2-yl)phenyl)amino)-3H-imidazo[4,5-b]pyridin-5-yl)amino)picolinonitrile]
30 | 0.5 to 1 | Cc1nc2c(Nc3ccc(-c4cn(C)cn4)cc3S(C)(=O)=O)cc(NC(=O)C3CC3(F)F)nc2[nH]1 (stereo not shown) [I-378, N-(7-((4-(1l2-imidazol-4-yl)-2-(methylsulfonyl)phenyl)amino)-2-methyl-3H-imidazo[4,5-b]pyridin-5-yl)-2,2-difluorocyclopropane-1-carboxamide]
31 | > 10 | COc1cc(Nc2ccc(-c3ccn(C)n3)cc2S(C)(=O)=O)c2nc(C)[nH]c2n1 [I-383, 5-methoxy-2-methyl-N-(4-(1-methyl-1H-pyrazol-3-yl)-2-(methylsulfonyl)phenyl)-3H-imidazo[4,5-b]pyridin-7-amine]
